Tests used:
[1] = test system: mouse model of heart attack; experiment: Mouse LAD ligation ischemia/reperfusion, NaI i.v. before reperfusion, infarct size by morphometry; format: in vivo
Method: In order to examine the effect of NaI on myocardial infarct size in a mouse model of heart attack, open chest ligation of the left descending coronary artery (LAD ligation) was performed in mice. At 55 minutes post initiation of ischemia, either vehicle (saline) or test agent (NaI) was injected into the femoral vein of each mouse. The heart muscle was reperfused by releasing the ligature at 60 minutes post initiation of ischemia. After 2 hours of reperfusion, infarct size was measured by morphometry (FIG. 1). Five groups of mice were utilized in this study, including a saline vehicle group (n=3) and […] test groups that received 0.25 mg/kg (n=4), 0.5 mg/kg (n=5), 1 mg/kg (n=5), or 2 mg/kg (n=6) of NaI. To be certain that all animals in the study were treated in a similar way, the area at risk (AAR) as a proportion of the left ventricle was determined (FIG. 1). Area at risk (AAR) and infarct size (Inf) were measured using the specific dyes TTC and Evans blue. Processed images were generated in an unbiased way by setting constant thresholds and allowing Photoshop® to generate the images that were quantitated to generate the data presented in FIG. 1.
An additional test was performed under the same conditions but using an expanded range of concentration of NaI.

[2] = test system: peripheral blood mononuclear cells (PBMC); experiment: Mixed lymphocyte culture, tritiated thymidine incorporation; format: cell-based; details: 5 days culture, 18 hours pulse
Method: In particular embodiments, immunosuppression induced by halogen or chalcogenide compounds is assessed by measuring T cell proliferation, e.g., in response to activated antigen presenting cells. Essentially a mixed lymphocyte reaction, this assay exploits that fact that T cell exposure to presented antigens result in T cell activation and proliferation, as well as supportive increases in DNA synthesis. […] Irradiation results in the presentation of numerous antigens to antigen presenting cells, thus the irradiated cells serve as potent activators of T cells. By mixing the irradiated cells with the non-irradiated cells, strong T cell proliferation will occur. This proliferation can be measured using any proliferation assay, as would be commonly known to the skilled artisan. In one embodiment, proliferation is assessed by measuring DNA synthesis. Mixed PBMC were cultured in the presence or absence of halogen or chalcogenide compounds for 5 days, and then pulsed with tritiated thymidine for 18 hours to label newly synthesized DNA. The degree of labeling is directly correlated with the degree of T cell activation, thus low levels of labeling correlate with immunosuppression.
PBMC were either irradiated with 3500 rads (Ax and Bx) or not (A and B). […] Cells were lysed, the lysate filtered to trap the DNA on the filter and the filters counted in a scintillation counter. […]

[3] = test system: mouse model of chronic heart failure; experiment: Mouse chronic heart failure after LAD ligation, iodide in drinking water, echocardiography; format: in vivo; details: drinking water 0.77 mg/kg/day iodide from LAD ligation for 12 weeks vs normal drinking water
Method: In order to examine the effect of drinking water containing NaI on chronic heart failure following heart attack in a mouse model, two groups of mice were provided with drinking water lacking iodide or drinking water containing 0.77 mg/kg/day iodide starting immediately following open chest ligation of the left descending coronary artery (LAD ligation) to initiate ischemia, and continuing until the end of the study, which lasted 12 weeks. Prior to the LAD ligation and at 1 week, 2 weeks, 4 weeks, 8 weeks, and 12 weeks following the LAD ligation, mice were examined by echocardiography to determine their left ventricle ejection fraction and their left ventricle fractional shortening.

[4] = test system: mouse model of heart attack; experiment: Mouse LAD ligation after two days of drinking water containing NaI, infarct size; format: in vivo
Method: In order to examine the effect of pre-treatment with drinking water containing NaI on myocardial infarct size in a mouse model of heart attack, three groups of mice were provided with drinking water containing various concentrations of iodide to achieve dosages of 0.07 mg/kg/day (normal drinking water) for the first group; 0.77 mg/kg/day for the second group; or 7.07 mg/kg/day for the third group, for two days immediately prior to open chest ligation of the left descending coronary artery (LAD ligation) to initiate ischemia. A fourth group of mice was provided with normal drinking water for the two days prior to the initiation of ischemia, but at 55 minutes post initiation of ischemia, either vehicle (saline) or test agent (NaI) was injected into the femoral vein of each of these mice. […] After two hours of reperfusion, infarct size was measured by morphometry (FIG. 1). To be certain that all animals in the study were treated in a similar way, the area at risk (AAR) as a proportion of the left ventricle was determined (FIG. 8). Area at risk (AAR) and infarct size (Inf) were measured using the specific dyes TTC and Evans blue. Processed images were generated in an unbiased way by setting constant thresholds and allowing Photoshop® to generate the images that were quantitated to generate the data presented in FIG. 8.

[5] = test system: mouse model of heart attack; experiment: Mouse LAD ligation, NaI i.v. pretreatment before ischemia, infarct size by morphometry; format: in vivo
Method: To determine whether pretreatment with NaI prior to heart attack improves heart attack outcome, open chest ligation experiments were performed in mice where either vehicle (saline) or test agent (NaI) was injected into the femoral vein of each mouse either 5 minutes or 48 hours before initiation of ischemia. Open chest ligation of the left descending coronary artery (LAD ligation) was then performed, and the heart muscle was reperfused by releasing the ligature at 60 minutes post initiation of ischemia. After 2 hours of reperfusion, infarct size was measured by morphometry as described above (FIG. 3). Three groups of mice were utilized in this study, including a saline vehicle group (n=1) and two test groups that received 1 mg/kg NaI 5 minutes before LAD ligation (n=4) or 1 mg/kg NaI 48 hours before LAD ligation (n=1).

[6] = test system: mouse model of heart attack; experiment: Transthoracic echocardiography of left ventricle after myocardial ischemia and reperfusion; format: in vivo; details: FIG. 4; single intravenous administration two days prior to ligation-induced ischemia
Method: For each of the sets of bars for Ejection Fraction and Fractional Shortening, the bars from left to right correspond to the bars from top to bottom shown in the legend.
In vivo transthoracic echocardiography of the left ventricle (LV) using a 30-MHz RMV scanhead interfaced with a Vevo 770 (Visualsonics) was performed, and two-dimensional echocardiography images were obtained. LV end-diastolic diameter (EDD) and LV end-systolic diameter (ESD) were measured at a day before for a baseline and one and 4 weeks after myocardial ischemia and reperfusion. LV percent fractional shortening (FS) and LV ejection fraction (EF) were calculated.

[7] = test system: rat model of acute myocardial infarction (AMI); experiment: Rat acute myocardial infarction (30 min LAD occlusion), plasma cTpnI and infarct size; format: in vivo; details: 1 mg/kg i.v. bolus, vs placebo
Method: Male CD®, IGS Rats (300-450 g) were subjected to 30 minutes of LAD occlusion followed by 24-30 hrs of reperfusion. 200-400 uL of blood was drawn at 4 and 24¬30 hrs post-reperfusion for plasma cTpnI measurements by EIA. After the 24-30 hr blood draw, the LAD was re-occluded, and the heart was excised following i.v. administration of Evans Blue. The hearts were frozen overnight, sectioned, and stained with triphenyl tetrazolium chloride for subsequent blinded infarct analysis.
Rats were anesthetized with a ketamine/xylazine mixture (100 mg/kg and 10 mg/kg, respectively) and maintained under 2-3% isoflurane in 100% medical oxygen after intubation with a 16 gauge angiocatheter sheath (Terumo® Surflo i.v. catheter, 16G×2″, VWR Cat. #TESR-OX1651CA). Animals were ventilated using a Harvard Apparatus Model 683 small animal ventilator equipped with a 5 cc cylinder at a tidal volume of 1.5-2.0 mL/stroke and a respiratory rate of 105 strokes/min. With the rat lying on its right side, animal fur was removed from the surgical area with clippers and then cleaned with alcohol pads. The heart beat was visualized through the chest wall and a dorsoventral incision in the left chest wall was made directly over the beating heart. The underlying fascia was dissected away to reveal the ribs and intercostal muscles. […]

[8] = Oxidation of selenide in water or glutathione solution (visual darkening); format: physicochemical; details: 50 mM selenide in 150 mM GSH vs in water, 8 minutes immediately following preparation
Method: The photographs show samples of 50 mM selenide in either water (FIG. 5A) or 150 mM GSH (FIG. 5B) over the eight minutes immediately following preparation.

hypoxic injuries = details: mice and rats; PCT Publication No. WO2005/041655; cited from earlier work

[I-].[Na+] [NaI, sodium iodide]
infarct size (morphometry) ([1]; NaI 0.25, 0.5, 1 or 2 mg/kg into femoral vein at 55 minutes of ischemia, 2 hours of reperfusion, vs saline group (FIG. 1)): statistically significant decreases in infarct size | infarct size (morphometry) ([1]; additional test, same conditions, expanded range of concentration of NaI, vs saline group (FIG. 2)): statistically significant decreases in infarct size | reduction in infarct size in comparison to vehicle alone ([1]; each dosage tested (0.25-2 mg/kg NaI i.v. at 55 minutes of ischemia)): approximately 70% | tritiated thymidine labeling (DNA synthesis) ([2]; highest concentration): reduced the amount of labeling | left ventricle ejection fraction [3]: statistically significant increases | left ventricle fractional shortening [3]: statistically significant increases | infarct size (morphometry) ([4]; drinking water 0.77 or 7.07 mg/kg/day for two days prior to LAD ligation vs normal water (0.07 mg/kg/day)): statistically significant decreases in infarct size | decrease in infarct size compared with iodide i.v. at the time of reperfusion ([4]; drinking water pre-treatment for two days): somewhat less or comparable | infarct size (morphometry) ([5]; 1 mg/kg NaI i.v. 5 minutes or 48 hours before LAD ligation, vs saline group (FIG. 3)): statistically significant decreases in infarct size | reduction in infarct size in comparison to vehicle alone ([5]; pre-treatment 1 mg/kg NaI 5 minutes or 48 hours before LAD ligation): approximately 70% | protective effect by echocardiography (LV ejection fraction, fractional shortening) [6]: protective effect of NAI was confirmed by echocardiography | plasma troponin levels (cTpnI) ([7]; 4 and 24 hr): consistently lower | infarct size ([7]; 24 hrs): smaller

selenide
tritiated thymidine labeling (DNA synthesis) ([2]; all concentrations): reduced the labeling to control levels | oxidation of selenide (dark oxidized forms) [8]: reduced levels of oxidation at each time point

sulfide
metabolism and protection from hypoxic injuries (hypoxic injuries): can reduce metabolism and protect mice and rats from hypoxic injuries

Source: patent US12016880B2, “Halogen treatment of heart attack and ischemic injury” (Fred Hutchinson Cancer Center, priority 2014, dated 2024)
